The values below are quoted from earlier work in publication PMC6282790, “Incorporating physiologically relevant mobile phases in micellar liquid chromatography for the prediction of human intestinal absorption” (Biomedical Chromatography, 2018).

Read-outs that look alike come from different tables or passages of the source.

The conditions of data set [1]: human intestinal absorption.
On the set-up of data set [2]: method as in https://pubchem.ncbi.nlm.nih.gov/, December 2014; unit not given beside the values. Conditions: literature values; ref https://pubchem.ncbi.nlm.nih.gov/, December 2014.
The conditions of data set [3]: in 0.15 M NaCl.
The mark [4] stands for this setting: ref Castillo‐Garit et al. (2014).

For `CCCCC1C(=O)N(c2ccccc2)N(c2ccccc2)C1=O` [Phenylbutazone, phenylbutazone], the “Experimental. %HIA” value in data set [1] (ref Hou et al. (2007), Veber et al. (2002)) is recorded as 94%. Besides, the PSA in data set [2] is 40.6. Take `CC(C(=O)O)c1cccc(C(=O)c2ccccc2)c1` (stereo not shown) [Ketoprofen, ketoprofen]: the PSA in data set [2] is given as 54.4. In the case of `O=C(O)Cc1ccccc1Nc1c(Cl)cccc1Cl` [Diclofenac, diclofenac], the “Experimental. %HIA” value in data set [1] (ref Veber et al. (2002)) is 54%.

Turning to `O=C(O)c1cccnc1` [Nicotinic acid, nicotinic acid], the “Experimental. %HIA” value in data set [1] (ref Newby et al. (2015)) is on record as 94%.

`CC(C(=O)O)c1ccc(-c2ccccc2)c(F)c1` (stereo not shown) [Flurbiprofen, flurbiprofen]: the “Experimental. %HIA” value in data set [1] (ref Raevsky (2004)) is given as 92%. Further, in data set [2], the PSA was 37.3. In the case of `CC(C(=O)O)c1cccc(Oc2ccccc2)c1` (stereo not shown) [Fenoprofen, fenoprofen], in data set [1] (ref Hou, Wang, Zhang, & Xu (2007)), the “Experimental. %HIA” value was 85%. Besides, in data set [2], the PSA is reported as 46.5. As for `O=C(O)c1ccccc1O` [Salicylic acid, salicylic acid], the “Experimental. %HIA” value in data set [1] (ref Raevsky (2004)) is reported as 99%. The PSA in data set [2] is given as 57.5. Turning to `C[C@H](CCC(=O)NCC(=O)[O-])[C@H]1CC[C@H]2[C@@H]3CC[C@@H]4C[C@H](O)CC[C@]4(C)[C@H]3C[C@H](O)[C@]12C.[Na+]` [NaGDC, sodium glycodeoxycholate], the CMC in data set [3] (ref Natalini et al., 2014) is 2.2 mM. With `CC(C)Cc1ccc(C(C)C(=O)O)cc1` (stereo not shown) [Ibuprofen, ibuprofen], in data set [1] (ref Newby et al. (2015)), the “Experimental. %HIA” value was 98%. Besides, the PSA in data set [2] is 37.3.

As for `C[C@H](CCC(=O)NCCS(=O)(=O)O)[C@H]1CC[C@H]2[C@@H]3[C@H](O)C[C@@H]4C[C@H](O)CC[C@]4(C)[C@H]3C[C@H](O)[C@]12C` [NaTC, sodium taurocholate], the CMC in data set [3] (ref Natalini et al., 2014) was 4 mM. For the compound `Cn1c(=O)c2[nH]cnc2n(C)c1=O` [Theophylline, theophylline], in data set [1] (ref Kansy, Senner, & Gubernator (1998)), the “Experimental. %HIA” value is 98%. The PSA in data set [2] is 69.3. `OC(Cn1cncn1)(Cn1cncn1)c1ccc(F)cc1F` [Fluconazole, fluconazole]: the PSA in data set [2] is 81.6. As to `CC(C)(C)NCC(O)c1cc(O)cc(O)c1` (stereo not shown) [Terbutaline, terbutaline], the “Experimental. %HIA” value in data set [1] (ref Grès et al. (1998)) was 25%. For the same compound, in data set [2], the PSA is listed as 72.7.

As for `C[C@H](CCC(=O)NCC(=O)[O-])[C@H]1CC[C@H]2[C@@H]3[C@H](O)C[C@@H]4C[C@H](O)CC[C@]4(C)[C@H]3C[C@H](O)[C@]12C.[Na+]` [NaGC, sodium glycocholate], the CMC in data set [3] (ref Natalini et al., 2014) was 9 mM. For the compound `COc1ccc2cc([C@H](C)C(=O)O)ccc2c1` [Naproxen, naproxen], in data set [1] (setting [4]), the “Experimental. %HIA” value is 94%.

Consider `C[C@H](CCC(=O)NCCS(=O)(=O)[O-])[C@H]1CC[C@H]2[C@@H]3CC[C@@H]4C[C@H](O)CC[C@]4(C)[C@H]3C[C@H](O)[C@]12C.[Na+]` [NaTDC, sodium taurodeoxycholate], for which the CMC in data set [3] (ref Natalini et al., 2014) was 2.4 mM. `CN(C)CCc1c[nH]c2ccc(C[C@H]3COC(=O)N3)cc12` [Zolmitriptan, zolmitriptan]: the “Experimental. %HIA” value in data set [1] (ref Newby et al. (2015)) is reported as 92%. Also, the PSA in data set [2] is given as 57.4. As for `NC(=O)N1c2ccccc2C=Cc2ccccc21` [Carbamazepine, carbamazepine], the “Experimental. %HIA” value in data set [1] (ref Dressman, Amidon, & Fleisher (1985), Varma, Sateesh, & Panchagnula (2005)) is 84%. In addition, the PSA in data set [2] was 46.3.

As to `C[C@H](CCC(=O)[O-])[C@H]1CC[C@H]2[C@@H]3[C@H](O)C[C@@H]4C[C@H](O)CC[C@]4(C)[C@H]3C[C@H](O)[C@]12C.[Na+]` [NaC, sodium cholate], the CMC in data set [3] (ref Reis et al., 2004) was 7.5 mM. For `CC(=O)Nc1ccc(O)cc1` [Acetaminophen, acetaminophen], the “Experimental. %HIA” value in data set [1] (setting [4]) is listed as 100%. Also, the PSA in data set [2] is on record as 49.3.

Consider `CN/C(=N/CCSCc1nc[nH]c1C)NC#N` [Cimetidine, cimetidine], for which, in data set [1] (ref Castillo‐Garit et al. (2014), Linnankoski, Mäkelä, Ranta, Urtti, & Yliperttula (2006)), the “Experimental. %HIA” value is on record as 68%. The PSA in data set [2] is reported as 88.89. `CC(=O)Oc1ccccc1C(=O)O` [Acetylsalicylic acid, acetyl salicylic acid]: in data set [1] (setting [4]), the “Experimental. %HIA” value was 82%. Further, the PSA in data set [2] was 63.6.
